# From ChEMBL document CHEMBL6103578, “Design and synthesis three novel series of derivatives using natural acetylcholinesterase inhibitor-RLMS as template and in vitro, in vivo and in silico activities verification” (Eur J Med Chem, 2025)
# pIC50: −log10 of the molar value. Activity calls are given as the source filed them. The rule behind the calls is not given here.
# Experiments:
# SH-SY5Y [1] = test: Neuroprotective effect against H2O2-induced cell injury in human SH-SY5Y cells assessed as cell survival at 25 to 100 uM preincubated for 1 hr followed by H2O2 addition measured after 2 hrs by MTT assay (reference value: 57.76 %); assay type: functional; conditions: dose 25-100 µM, time 3 hrs
# Acetylcholinesterase [2] = target: T1, Acetylcholinesterase (Homo sapiens, UniProt P22303); test: Inhibition of AChE (unknown origin) using ATCI as substrate preincubated for 20 mins followed by substrate addition measured after 30 mins by DTNB assay
# SH-SY5Y [3] = test: Neuroprotective effect against H2O2-induced cell injury in human SH-SY5Y cells assessed as cell survival at 25 uM preincubated for 1 hr followed by H2O2 addition measured after 2 hrs by MTT assay (reference value: 57.76 %); assay type: functional; conditions: time 3 hrs, read-out: Activity
# Acetylcholinesterase [4] = target: T1, Acetylcholinesterase; test: Mixed competitive inhibition of AChE (unknown origin) at 2.5 to 15 uM by DTNB assay; conditions: dose 2.5-15 µM
# T1 sequence (P22303 whole entry): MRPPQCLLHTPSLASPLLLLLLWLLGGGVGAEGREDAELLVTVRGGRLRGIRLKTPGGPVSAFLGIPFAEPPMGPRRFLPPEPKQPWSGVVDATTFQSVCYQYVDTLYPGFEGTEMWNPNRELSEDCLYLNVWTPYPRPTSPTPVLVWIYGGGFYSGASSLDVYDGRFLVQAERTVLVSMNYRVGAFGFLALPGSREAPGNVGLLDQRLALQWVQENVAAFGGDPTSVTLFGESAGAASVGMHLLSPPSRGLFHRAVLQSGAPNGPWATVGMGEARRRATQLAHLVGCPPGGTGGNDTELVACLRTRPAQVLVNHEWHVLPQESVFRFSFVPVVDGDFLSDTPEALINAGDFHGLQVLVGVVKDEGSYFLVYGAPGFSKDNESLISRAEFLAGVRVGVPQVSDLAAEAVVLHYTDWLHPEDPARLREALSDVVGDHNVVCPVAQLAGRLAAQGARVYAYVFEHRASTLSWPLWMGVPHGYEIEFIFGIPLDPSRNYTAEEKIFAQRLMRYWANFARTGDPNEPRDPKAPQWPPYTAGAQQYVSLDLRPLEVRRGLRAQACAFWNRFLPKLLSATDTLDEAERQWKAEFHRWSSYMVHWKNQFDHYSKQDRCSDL
SMILES,Activity (SH-SY5Y [1]) [%],pIC50 (Acetylcholinesterase [2]),viability at 25 µM (SH-SY5Y [3]) [%],inhibition (Acetylcholinesterase [4])
C[C@@H]1CC[C@]2(C(=O)NCc3ccccc3Br)CC[C@]3(C)C(=CC[C@@H]4[C@@]5(C)C[C@@H](O)[C@H](O)[C@@](C)(CO)[C@@H]5CC[C@]43C)[C@@H]2[C@]1(C)O,>57.76,4.32,,
C[C@@H]1CC[C@]2(C(=O)O)CC[C@]3(C)C(=CC[C@@H]4[C@@]5(C)C[C@@H](OC(=O)c6ccc(Cl)cc6)[C@H](OC(=O)c6ccc(Cl)cc6)[C@@](C)(CO)[C@@H]5CC[C@]43C)[C@@H]2[C@]1(C)O,>57.76,4.67,72.5,
C[C@@H]1CC[C@]2(C(=O)NCCc3ccc(Cl)c(Cl)c3)CC[C@]3(C)C(=CC[C@@H]4[C@@]5(C)C[C@@H](O)[C@H](O)[C@@](C)(CO)[C@@H]5CC[C@]43C)[C@@H]2[C@]1(C)O,>57.76,< 4.00,,
C[C@@H]1CC[C@]2(C(=O)NCc3cccc(Cl)c3)CC[C@]3(C)C(=CC[C@@H]4[C@@]5(C)C[C@@H](O)[C@H](O)[C@@](C)(CO)[C@@H]5CC[C@]43C)[C@@H]2[C@]1(C)O,>57.76,4.20,,
Cc1c(C)c2c(c(C)c1O)CCC(C)(C(=O)O)O2 (centres undefined) [TROLOX],>57.76,,72.6,
CCCC(=O)OC[C@]1(C)C=C(C=O)[C@@]2(C)[C@H]1CC[C@]1(C)[C@@H]2CC=C2[C@H]3[C@](C(=O)O)(CC[C@@H](C)[C@@]3(C)O)CC[C@]21C,<57.76,< 4.00,,
CCCCCC(=O)OC[C@]1(C)C=C(C=O)[C@@]2(C)[C@H]1CC[C@]1(C)[C@@H]2CC=C2[C@H]3[C@](C(=O)O)(CC[C@@H](C)[C@@]3(C)O)CC[C@]21C,>57.76,< 4.00,,
C[C@@H]1CC[C@]2(C(=O)O)CC[C@]3(C)C(=CC[C@@H]4[C@@]5(C)C[C@@H](O)OCC(C)(C=O)[C@@H]5CC[C@]43C)[C@@H]2[C@]1(C)O (some centres undefined),>57.76,< 4.00,,
C[C@@H]1CC[C@]2(C(=O)NCCc3c[nH]c4ccccc34)CC[C@]3(C)C(=CC[C@@H]4[C@@]5(C)C[C@@H](O)[C@H](O)[C@@](C)(CO)[C@@H]5CC[C@]43C)[C@@H]2[C@]1(C)O,>57.76,4.29,72.5,
C[C@@H]1CC[C@]2(C(=O)O)CC[C@]3(C)C(=CC[C@@H]4[C@@]5(C)C(C=O)=C[C@@](C)(COC(=O)c6ccc(C(F)(F)F)cc6)[C@@H]5CC[C@]43C)[C@@H]2[C@]1(C)O,>57.76,< 4.00,,
C[C@@H]1CC[C@]2(C(=O)O)CC[C@]3(C)C(=CC[C@@H]4[C@@]5(C)C[C@@H](OC(=O)CCc6ccccc6)[C@H](O)[C@@](C)(CO)[C@@H]5CC[C@]43C)[C@@H]2[C@]1(C)O,>57.76,4.94,,
C[C@@H]1CC[C@]2(C(=O)O)CC[C@]3(C)C(=CC[C@@H]4[C@@]5(C)C[C@@H](OC(=O)c6ccc(Cl)cc6)[C@H](O)[C@@](C)(CO)[C@@H]5CC[C@]43C)[C@@H]2[C@]1(C)OC(=O)c1ccc(Cl)cc1,<57.76,4.27,,
C[C@@H]1CC[C@]2(C(=O)O)CC[C@]3(C)C(=CC[C@@H]4[C@@]5(C)C[C@@H](O)[C@H](OC(=O)c6ccc(C(F)(F)F)cc6)[C@@](C)(CO)[C@@H]5CC[C@]43C)[C@@H]2[C@]1(C)O,>57.76,< 4.00,,
C[C@@H]1CC[C@]2(C(=O)O)CC[C@]3(C)C(=CC[C@@H]4[C@@]5(C)C[C@@H](O)[C@H](O)[C@@](C)(CO)[C@@H]5CC[C@]43C)[C@@H]2[C@]1(C)O,>57.76,4.63,72.8,
C[C@@H]1CC[C@]2(C(=O)NCc3ccccc3)CC[C@]3(C)C(=CC[C@@H]4[C@@]5(C)C[C@@H](O)[C@H](O)[C@@](C)(CO)[C@@H]5CC[C@]43C)[C@@H]2[C@]1(C)O,>57.76,4.19,72.5,
C[C@@H]1CC[C@]2(C(=O)O)CC[C@]3(C)C(=CC[C@@H]4[C@@]5(C)C(C=O)=C[C@@](C)(COC(=O)CCc6ccccc6)[C@@H]5CC[C@]43C)[C@@H]2[C@]1(C)O,>57.76,4.33,,
C[C@@H]1CC[C@]2(C(=O)NC3CCCCC3)CC[C@]3(C)C(=CC[C@@H]4[C@@]5(C)C[C@@H](O)[C@H](O)[C@@](C)(CO)[C@@H]5CC[C@]43C)[C@@H]2[C@]1(C)O,>57.76,4.09,,

SMILES,Activity (SH-SY5Y [1]) [%],pIC50 (Acetylcholinesterase [2]),viability at 25 µM (SH-SY5Y [3]) [%],inhibition (Acetylcholinesterase [4])
COc1ccc(C(=O)OC[C@]2(C)C=C(C=O)[C@@]3(C)[C@H]2CC[C@]2(C)[C@@H]3CC=C3[C@H]4[C@](C(=O)O)(CC[C@@H](C)[C@@]4(C)OC(=O)c4ccc(OC)cc4)CC[C@]32C)cc1,>57.76,4.15,,
C[C@@H]1CC[C@]2(C(=O)O)CC[C@]3(C)C(=CC[C@@H]4[C@@]5(C)C(C=O)=C[C@@](C)(COC(=O)c6ccc(F)cc6)[C@@H]5CC[C@]43C)[C@@H]2[C@]1(C)O,<57.76,4.14,,
CCCCCCNC(=O)[C@]12CC[C@@H](C)[C@@](C)(O)[C@H]1C1=CC[C@@]3(C)[C@@](C)(CC[C@H]4[C@](C)(CO)[C@@H](O)[C@H](O)C[C@@]43C)[C@]1(C)CC2,>57.76,< 4.00,,
C[C@@H]1CC[C@]2(C(=O)O)CC[C@]3(C)C(=CC[C@@H]4[C@@]5(C)C(C=O)=C[C@@](C)(COC(=O)c6ccc(Cl)cc6)[C@@H]5CC[C@]43C)[C@@H]2[C@]1(C)OC(=O)c1ccc(Cl)cc1,>57.76,< 4.00,,
C[C@@H]1CC[C@]2(C(=O)NCc3ccc(Br)cc3)CC[C@]3(C)C(=CC[C@@H]4[C@@]5(C)C[C@@H](O)[C@H](O)[C@@](C)(CO)[C@@H]5CC[C@]43C)[C@@H]2[C@]1(C)O,>57.76,4.07,,
C[C@@H]1CC[C@]2(C(=O)O)CC[C@]3(C)C(=CC[C@@H]4[C@@]5(C)C[C@@H](OC(=O)c6ccc(Cl)cc6)[C@H](OC(=O)c6ccc(Cl)cc6)[C@@](C)(COC(=O)c6ccc(Cl)cc6)[C@@H]5CC[C@]43C)[C@@H]2[C@]1(C)O,>57.76,5.23,,
C[C@@H]1CC[C@]2(C(=O)O)CC[C@]3(C)C(=CC[C@@H]4[C@@]5(C)C[C@@H](OC(=O)c6ccc(C(F)(F)F)cc6)[C@H](OC(=O)c6ccc(C(F)(F)F)cc6)[C@@](C)(CO)[C@@H]5CC[C@]43C)[C@@H]2[C@]1(C)O,>57.76,4.36,,
C[C@@H]1CC[C@]2(C(=O)O)CC[C@]3(C)C(=CC[C@@H]4[C@@]5(C)C(C=O)=C[C@@](C)(CO)[C@@H]5CC[C@]43C)[C@@H]2[C@]1(C)O,>57.76,< 4.00,,
C[C@@H]1CC[C@]2(C(=O)NCc3ccccc3F)CC[C@]3(C)C(=CC[C@@H]4[C@@]5(C)C[C@@H](O)[C@H](O)[C@@](C)(CO)[C@@H]5CC[C@]43C)[C@@H]2[C@]1(C)O,<57.76,< 4.00,,
C[C@@H]1CC[C@]2(C(=O)O)CC[C@]3(C)C(=CC[C@@H]4[C@@]5(C)C[C@@H](OC(=O)CCc6ccccc6)[C@H](OC(=O)CCc6ccccc6)[C@@](C)(CO)[C@@H]5CC[C@]43C)[C@@H]2[C@]1(C)O,>57.76,5.23,72.5,Active
COc1ccc(C(=O)O[C@]2(C)[C@H](C)CC[C@]3(C(=O)O)CC[C@]4(C)C(=CC[C@@H]5[C@@]6(C)C(C=O)=C[C@@](C)(CO)[C@@H]6CC[C@]54C)[C@@H]32)cc1,>57.76,< 4.00,,
COc1ccc(C(=O)O[C@]2(C)[C@H](C)CC[C@]3(C(=O)O)CC[C@]4(C)C(=CC[C@@H]5[C@@]6(C)C[C@@H](O)[C@H](O)[C@@](C)(CO)[C@@H]6CC[C@]54C)[C@@H]32)cc1,>57.76,4.20,72.5,
C[C@@H]1CC[C@]2(C(=O)NCc3cccc(Br)c3)CC[C@]3(C)C(=CC[C@@H]4[C@@]5(C)C[C@@H](O)[C@H](O)[C@@](C)(CO)[C@@H]5CC[C@]43C)[C@@H]2[C@]1(C)O,>57.76,4.11,72.5,
C[C@@H]1CC[C@]2(C(=O)NCc3ccc(Cl)cc3)CC[C@]3(C)C(=CC[C@@H]4[C@@]5(C)C[C@@H](O)[C@H](O)[C@@](C)(CO)[C@@H]5CC[C@]43C)[C@@H]2[C@]1(C)O,>57.76,4.19,,
C[C@@H]1CC[C@]2(C(=O)NCc3cccc(F)c3)CC[C@]3(C)C(=CC[C@@H]4[C@@]5(C)C[C@@H](O)[C@H](O)[C@@](C)(CO)[C@@H]5CC[C@]43C)[C@@H]2[C@]1(C)O,<57.76,< 4.00,,
C[C@@H]1CC[C@]2(C(=O)NCc3ccc(F)cc3)CC[C@]3(C)C(=CC[C@@H]4[C@@]5(C)C[C@@H](O)[C@H](O)[C@@](C)(CO)[C@@H]5CC[C@]43C)[C@@H]2[C@]1(C)O,<57.76,< 4.00,,
